Experimental data taken from PubChem BioAssay (NCI).
Several values for one entry are separate records, joined by “and”; a condition that tells them apart may be missing. Equal values may be shown once.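 Each compound was tested at five concentrations against cells in 96-well plates for 48 hours. GI50 is the concentration that inhibits growth by half. At the TGI there is no net growth.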

What was measured:
Assay in all cases: DTP human tumour cell line panel, 48 h
786-0 renal = test system: 786-0 renal
BT-549 breast = test system: BT-549 breast
HS 578T breast = test system: HS 578T breast
MDA-MB-231 breast = test system: MDA-MB-231 breast
MDA-MB-435 = test system: MDA-MB-435
MDA-N = test system: MDA-N
NCI/ADR-RES ovarian = test system: NCI/ADR-RES ovarian
PC-3 prostate = test system: PC-3 prostate
T-47D breast = test system: T-47D breast
DLD-1 colon = test system: DLD-1 colon
HOP-18 NSCLC = test system: HOP-18 NSCLC
KM20L2 colon = test system: KM20L2 colon
SNB-78 CNS = test system: SNB-78 CNS
XF 498 CNS = test system: XF 498 CNS

| Compound | TGI (786-0 renal) | TGI (BT-549 breast) [µM] | TGI (HS 578T breast) | TGI (MDA-MB-231 breast) | TGI (MDA-MB-435) | TGI (MDA-N) | TGI (NCI/ADR-RES ovarian) | TGI (PC-3 prostate) | TGI (T-47D breast) | TGI (DLD-1 colon) [µM] | TGI (HOP-18 NSCLC) [µM] | TGI (KM20L2 colon) [µM] | TGI (SNB-78 CNS) [µM] | TGI (XF 498 CNS) [µM] | GI50 (BT-549 breast) [nM] | GI50 (MDA-MB-231 breast) [nM] | GI50 (MDA-MB-435) [nM] | GI50 (NCI/ADR-RES ovarian) [nM] | GI50 (PC-3 prostate) [nM] | GI50 (T-47D breast) [nM] |
| --- | --- | --- | --- | --- | --- | --- | --- | --- | --- | --- | --- | --- | --- | --- | --- | --- | --- | --- | --- | --- |
| COC(=O)NC1C(C)OC(OC2C/C=C(/C)C3C=CC4C(OC5CC(OC6CC(OC7CC(O)C(O)C(C)O7)C(OC7CC(O)C(OC)C(C)O7)C(C)O6)C(O)C(C)O5)C(C)CC(C)C4C3(C)/C(O)=C3\C(=O)OC4(CC(C)C(CO)=CC4/C=C\2C)C3=O)CC1(C)[N+](=O)[O-] (centres undefined) | 7.08 µM | 89.5 | > 100 µM | 40.2 µM | > 100 µM | > 100 µM | > 100 µM | > 100 µM | 25 µM | – | – | – | – | – | – | – | – | – | – | – |
| CC1C(=O)C(C)C(c2ccco2)N(N=O)C1c1ccco1 (centres undefined) | – | – | – | – | – | – | > 100 µM | – | – | > 100 | > 100 | > 100 | > 100 | 50.5 | – | – | – | – | – | – |
| Nc1nc(OCC2CCCCC2)c2[nH]cnc2n1 | > 88.1 µM | > 72.9 | > 44.5 µM | > 100 µM | 60.7 µM | 58.3 µM | > 100 µM | 41.2 µM | 30 µM | – | – | – | – | – | – | – | – | – | – | – |
| Cc1[nH]n(-c2ccccc2)c(=O)c1C(N(CCc1ccccc1)C1=NCC(C)S1)(C(F)(F)F)C(F)(F)F (centres undefined) | 34.9 µM | 49.1 | 88.4 µM | 65.6 µM | > 100 µM | 45.7 µM | 89 µM | 84.9 µM | 43.1 µM | – | – | – | – | – | – | – | – | – | – | – |
| CC(=O)OCC1OC(Oc2cc(C)c(O)cc2C/C=C(\C)CC/C=C(\C)C[C@@H](C=C(C)C)OC(C)=O)C(O)C(OC(C)=O)C1OC(C)=O (some centres undefined) | > 50 µM | > 50 | 39.2 µM | > 50 µM | > 50 µM | > 50 µM | > 50 µM | > 50 µM | 30.7 µM | – | – | – | – | – | – | – | – | – | – | – |
| c1c2c(cc3c1OCO3)-c1cc3ccc4c(c3c[n+]1CC2)OCO4 | > 10.1 µM | > 12.5 | > 12.5 µM | > 6.86 µM | 0.865 µM | 0.595 µM | 1.28 µM | > 12.5 µM | > 12.5 µM | – | – | – | – | – | – | – | – | – | – | – |
| O=C(NC(Cc1ccc(I)cc1)C(=O)O)c1ccc(Cl)cc1 (centres undefined) | – | – | – | – | – | – | > 100 µM | – | – | > 100 | > 100 | > 100 | > 100 | > 100 | – | – | – | – | – | – |
| CN(C)c1ccc(/C=c2/c3ccccc3n3c2cc(NC(=O)NCCC[N+](C)(C)C)[n+]3C)cc1 | > 100 µM | > 100 | > 100 µM | > 100 µM | > 100 µM | – | > 100 µM | > 100 µM | > 100 µM | – | – | – | – | – | – | – | – | – | – | – |
| Oc1ccc(-c2nc3cc(F)ccc3s2)cc1 | 92.6 µM | 60.6 | – | – | 43.1 µM | 79.4 µM | 42.4 µM | 60 µM | 33.7 µM | – | – | – | – | – | – | – | – | – | – | – |
| CNC(C)Cc1ccccc1OC (centres undefined) | > 100 µM | – | – | – | – | – | – | – | – | > 100 | > 100 | > 100 | > 100 | > 100 | – | – | – | – | – | – |
| C[n+]1c2ccccc2c(CNC(CS)C(=O)O)c2ccccc21 (centres undefined) | > 100 µM | – | – | – | – | – | – | – | – | > 100 | > 100 | 82 | > 100 | 40.3 | – | – | – | – | – | – |
| O=c1c2cc(S(=O)(=O)O)ccc2nc(COc2ccc(Oc3ccc(Cl)cc3Cl)cc2)n1C(=S)Nc1ccc(Cl)cc1 | 40.4 µM | 45.2 | 44.8 µM | – | 39.3 µM | 51 µM | 37.9 µM | > 100 µM | > 100 µM | – | – | – | – | – | – | – | – | – | – | – |
| CCSc1nc(-c2cccs2)nc2ccc(I)cc12 | > 100 µM | > 100 | – | – | > 100 µM | > 100 µM | > 100 µM | > 100 µM | 6.88 µM | – | – | – | – | – | – | – | – | – | – | – |
| O=C1OC2(OC2c2ccc(Cl)cc2)c2ccccc21 (centres undefined) | – | – | – | – | – | – | – | – | – | > 100 | – | > 100 | – | > 100 | – | – | – | – | – | – |
| COC(=O)/C=C1\CCCN1CCc1cc2c(cc1CC#N)OCO2 | > 100 µM | > 100 | > 100 µM | > 100 µM | 45.1 µM | 45.6 µM | > 100 µM | > 100 µM | > 100 µM | – | – | – | – | – | – | – | – | – | – | – |
| COC(=O)c1ccccc1C1=C([N+](=O)[O-])C(c2cccc(Br)c2)C(C#N)=C(N)O1 (centres undefined) | 63.2 µM | – | 56.9 µM | > 100 µM | 57.4 µM | > 100 µM | 65.9 µM | > 100 µM | 84.6 µM | – | – | – | – | – | – | – | – | – | – | – |
| CC1(C=O)CCC23COC4(CCC5C6(C)CCC(OC7OCC(OC8OC(CO)C(O)C(OC9OC(CO)C(O)C(O)C9O)C8OC8OCC(O)C(O)C8O)C(O)C7OC7OC(CO)C(O)C(O)C7O)C(C)(C)C6CCC5(C)C4(C)CC2O)C3C1 (centres undefined) | 2.43 µM | 3.06 | 2.99 µM | 0.95 µM | – | 1.81 µM | 1.05 µM | 2.67 µM | 3.36 µM | – | – | – | – | – | – | – | – | – | – | – |
| COc1cc([N+](=O)[O-])ccc1NC(=O)c1cccc([N+](=O)[O-])c1O | – | – | – | – | – | – | – | – | – | > 100 | 61 | > 100 | > 100 | – | – | – | – | – | – | – |
| CC1(O)COCCCCOc2c(CN)cccc2NC(=O)c2nc(cnc2N)-c2ccc(cc2)S(=O)(=O)C(C)(C)C1 (centres undefined) | – | 2.91 | – | 2.82 µM | 2.72 µM | – | 4.02 µM | 2.54 µM | 3.27 µM | – | – | – | – | – | 1450 | 1370 | 1350 | 1710 | 1180 | 1440 |
| NCCNCCNc1ccc(NCCNCCN)c2c1C(=O)c1c(O)ccc(O)c1C2=O | > 100 µM | > 100 | > 100 µM | > 100 µM | > 100 µM | > 100 µM | > 100 µM | > 100 µM | – | – | – | – | – | – | – | – | – | – | – | – |
| CCc1ccc2c(c1)C(=O)c1c-2n(CCCN)c(=O)c2cc([N+](=O)[O-])ccc12 | – | 3.29 | – | 2.98 µM | 3 µM | – | 3.29 µM | – | 2.91 µM | – | – | – | – | – | 1680 | 1530 | 1560 | 1620 | – | 1280 |
| CCOC(=O)Nc1cc2c(c(N)n1)N=C(c1ccc3ccccc3c1)CN2 | 3.81 µM | > 57.8 | 3.16 µM | – | 0.338 µM | 1.04 µM | 0.16 µM | 24.7 µM | > 100 µM | – | – | – | – | – | – | – | – | – | – | – |
| c1ccc([P+](c2ccccc2)(c2ccccc2)c2ccc(-c3ccc([P+](c4ccccc4)(c4ccccc4)c4ccccc4)cc3)cc2)cc1 | > 100 µM | > 100 | > 100 µM | 63.5 µM | 84.5 µM | 92.6 µM | > 100 µM | 73.9 µM | > 100 µM | – | – | – | – | – | – | – | – | – | – | – |
| CN(C)CCCN1c2ccc([N+](=O)[O-])cc2CCc2cc([N+](=O)[O-])ccc21 | 24.5 µM and 27.5 µM | 29.2 | 34.4 µM and 35.6 µM | 30.3 µM and 22.6 µM | 26.5 µM and 29.5 µM | 27.2 µM and 27 µM | 30.8 µM and 32.6 µM | 31.3 µM and 27 µM | 32.1 µM and 36.3 µM | – | – | – | – | – | – | – | – | – | – | – |
| CO/N=C(\C)c1cccc(Nc2nc3ccccc3c3occc23)c1 | 26.7 µM | 26.8 | 27.2 µM | 22.8 µM | 25.4 µM | 28.5 µM | 30.7 µM | 28.2 µM | 31.3 µM | – | – | – | – | – | – | – | – | – | – | – |
| N=C(N)SCc1cccc([N+](=O)[O-])c1 | – | – | – | – | – | – | 48.3 µM | – | – | 97.6 | 89.1 | > 90.6 | > 100 | 71.8 | – | – | – | – | – | – |
| CCO[C@]12CCC[C@H]1[C@@H]1C(=O)c3ccccc3C(=O)C1=C(C)O2 | > 100 µM | – | > 100 µM | > 100 µM | > 100 µM | 43 µM | > 100 µM | > 100 µM | > 100 µM | – | – | – | – | – | – | – | – | – | – | – |
| O=C(CSc1nc2ccc(I)cc2c(=O)n1Cc1ccccc1)NN1C(=O)c2ccccc2C1=O | > 100 µM | 36.2 | 43.1 µM | 32 µM | > 100 µM | > 100 µM | 42.8 µM | 19.6 µM | 50 µM | – | – | – | – | – | – | – | – | – | – | – |
| CCOP(=O)(OCC)C(Nc1cccc(F)c1)c1ccc(N(C)C)cc1 (centres undefined) | – | > 100 | > 100 µM | > 100 µM | > 100 µM | > 100 µM | > 100 µM | > 100 µM | > 100 µM | – | – | – | – | – | – | – | – | – | – | – |
| Cc1c2cc[n+](C)cc2c(C)c2c1oc1ccccc12 | 31.8 µM | 4.39 | 4.8 µM | 35.2 µM | 21.5 µM | 23.8 µM | > 100 µM | 37.8 µM | – | > 59.5 | > 63.7 | > 64.1 | 29.6 | – | – | – | – | – | – | – |
